Laboratory results as given in patent US6096512A, “Cloned DNA encoding a UDP-GalNAc: Polypeptide, N-acetylgalactosaminyltransferase” (Pharmacia & Upjohn Company, priority 1997, dated 2000).
Values joined by “and” are separate entries in the source; they are usually repeats but may differ in a detail not shown here. Equal entries are not always repeated. Residues, ends and D or L forms follow the SMILES beside them.

Key:
[1] = biological target: T1, bovine colostrum GalNAc-transferase (Bos taurus, UniProt Q07537); assay: Transfer of N-acetylgalactosamine to protein acceptors by bovine colostrum GalNAc-transferase; format: biochemical; conditions: for acceptor activity in words: native or reduced and carboxymethylated
T1 sequence (Q07537 41-559): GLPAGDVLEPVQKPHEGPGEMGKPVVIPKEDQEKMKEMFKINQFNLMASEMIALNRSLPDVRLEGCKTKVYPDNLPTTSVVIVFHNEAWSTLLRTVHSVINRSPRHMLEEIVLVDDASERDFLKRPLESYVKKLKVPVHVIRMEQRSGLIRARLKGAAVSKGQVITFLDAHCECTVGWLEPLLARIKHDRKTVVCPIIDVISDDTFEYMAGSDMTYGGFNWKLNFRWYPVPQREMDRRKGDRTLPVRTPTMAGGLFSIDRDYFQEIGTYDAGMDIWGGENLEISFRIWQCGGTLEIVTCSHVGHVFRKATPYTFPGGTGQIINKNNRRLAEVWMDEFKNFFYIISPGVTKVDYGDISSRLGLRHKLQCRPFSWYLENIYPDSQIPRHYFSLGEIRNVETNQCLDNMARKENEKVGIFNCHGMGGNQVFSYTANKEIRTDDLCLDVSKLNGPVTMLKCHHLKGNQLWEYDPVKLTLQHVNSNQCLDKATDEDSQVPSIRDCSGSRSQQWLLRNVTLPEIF
Description: (§1) The standard assay for UDP-GalNAc:polypeptide, N-acetylgalactosaminyltransferase activity during purification contained the following components in a final volume of 80 μl: 50 mM Imidazole pH 7.2, 10 mM MnCl2, 0.5% Triton X-100, 15 μM UDP-GalNAc, UDP[1-^3 H-] GalNAc (27,000 cpm/assay), 0.15 mg/ml apomucin and varying amounts of enzyme (see individual experiments). The reaction mixture is incubated at 37° C. for 5-10 minutes (see individual experiments) and the reaction product is TCA precipitated and radioactivity measured as described. Assays for activity in lysates from Spodoptera frugiperda cell line 9 (hereinafter referred to as Sf9 cells) are carried out as described by Thomsen et al., (1990).
The above conclusions and the predictions of the specificity algorithm are validated experimentally by studying the ability of bovine colostrum GalNAc-transferase to transfer N-acetylgalactosamine to a variety of acceptors, both native proteins and synthetic acceptor peptides. The transfer of N-acetylgalactosamine to protein acceptors is assayed as described by Elhammer and Kornfeld, 1986, with minor modifications. The concentration of UDP-GalNAc is saturating in all assays; a Km of 8 μM is reported for bovine colostrum GalNAc-transferase (Elhammer and Kornfeld, 1986).
The transfer of N-acetylgalactosamine to protein acceptors was assayed
under standard conditions (see Material and Methods). The acceptor
concentration was 65 μM, the enzyme concentration approximately
65 mU/ml and assay time was 60 minutes. The transfer to both native and
reduced-carboxymethylated acceptors was assayed.

[2] = tested on: GalNAc-transferase activity in Sf9 cells; assay: Expression of baculovirus isolates of the GalNAc-transferase in Sf9 cells, GalNAcT activity; format: cell-based, Spodoptera frugiperda
Description: as §1
The putative GalNAcT coding region, pCR1000-91B, is digested with SstII and HindIII (both enzymes cut only in pCR1000 sequences that flank the insert; FIG. 2C) and these sites are blunted using T4 DNA polymerase so that it can be cloned into a baculovirus expression vector. BamHI linkers are then ligated onto the blunted ends and the resulting sample is ligated into the BamHI site of the baculovirus expression vector pAC373 (Summers and Smith, 1986). The resulting isolates are screened for proper orientation of the GalNAcT open reading frame with respect to the baculovirus polyhedron promoter, to yield pAC373-GalNAcT. […]

[3] = biological target: T1, bovine colostrum GalNAc-transferase; assay: Determination of kinetic parameters for acceptor peptides; format: biochemical
Source text: (§2) The t-Boc-amino acids and the PAM resin solid supports are supplied by ABI. The completed peptides are removed from the supporting resin, concurrently with the side chain-protecting groups, by a standard HF cleavage procedure using anisole as a cation scavenger (10% v/v). The crude peptides are purified by preparative reverse phase chromatography on a C18 Vydac column (2.5×30 cm) using a water/acetonitrile gradient, each phase containing 0.1% TFA.
The transfer of N-acetylgalactosamine to peptide acceptors is assayed by two different assays. […] For the determination of kinetic parameters the reaction mixture contains 50 mM Imidazole, pH 7.2, 10 mM MnCl2, 0.5% Triton X-100, 150 μM UDP-GalNAc, approximately 120,000 cpm of UDP-[1-^3 H]-GalNAc, varying concentrations of acceptor (see individual experiments) and approximately 5 mU of enzyme in a final volume of 40 μl; standard incubation time is 20 minutes. The reaction is terminated by placing the samples in a boiling water bath for 1.5 minutes. The reaction product (glycosylated peptide) is separated from unreacted UDP-GalNAc by chromatography on Dowex-2 columns (0.5 ml bed volume) equilibrated in water; the run-through fraction (2.5 ml) containing the glycosylated peptide is collected, supplemented with scintillation fluid and counted for radioactivity. […]

[4] = tested on: GalNAcTs (cloned soluble GalNAc-transferase); assay: Transfer of N-acetylgalactosamine to synthetic acceptor peptides by soluble GalNAc-transferase, kinetic parameters; conditions: read-out: Km for UDP-GalNAc
[5] = biological target: T1, bovine colostrum GalNAc-transferase; assay: Comparison of different synthetic peptides as acceptors (Biogel P-2 separation); format: biochemical
Source text: as §2
The transfer of N-acetylgalactosamine to peptide acceptors is assayed by two different assays. […] For the determination of kinetic parameters the reaction mixture contains 50 mM Imidazole, pH 7.2, 10 mM MnCl2, 0.5% Triton X-100, 150 μM UDP-GalNAc, approximately 120,000 cpm of UDP-[1-^3 H]-GalNAc, varying concentrations of acceptor (see individual experiments) and approximately 5 mU of enzyme in a final volume of 40 μl; standard incubation time is 20 minutes. The reaction is terminated by placing the samples in a boiling water bath for 1.5 minutes. The reaction product (glycosylated peptide) is separated from unreacted UDP-GalNAc by chromatography on Dowex-2 columns (0.5 ml bed volume) equilibrated in water; the run-through fraction (2.5 ml) containing the glycosylated peptide is collected, supplemented with scintillation fluid and counted for radioactivity. For the determination of the low levels of transfer to serine, the assay conditions are as follows: 50 mM Imidazole, pH 7.2, 10 mM MnCl2, 0.5% Triton X-100, 150 μM UDP-GalNAc, approximately 260,000 cpm UDP-[^3 H]-GalNAc and 3.2 mM acceptor peptide (the concentration of RSPPP is 3.7 mM). […] Following incubation, the enzyme is inactivated by placing the samples on a boiling water bath for 1.5 minutes. The samples are then allowed to cool and the reaction products are separated from unreacted UDP-GalNAc and free GalNAc by chromatography on a Biogel P-2 column (1×50 cm) equilibrated in 7% isopropanol; thirty 1.3 ml fractions are collected.
Assays were done as described in Materials and Methods. The products
were separated by Biogel P-2 chromatography. Assay times were 20 […]

Bovine cytochrome C: contains one Ser and eight Thr residues but no predicted potential sites [reference compound]
Product formed, native acceptor ([1]; acceptor 65 μM, enzyme approximately 65 mU/ml, 60 minutes, native): < 0.1 nmol/min/mg
Product formed, reduced and carboxymethylated acceptor ([1]; acceptor 65 μM, enzyme approximately 65 mU/ml, 60 minutes, myelin basic protein was not reduced and carboxymethylated): < 0.1 nmol/min/mg
acceptor activity in words ([1]; listed as bovine cytochrome C): is not an acceptor for the enzyme
acceptor activity in words ([1]; listed as cytochrome C): completely inactive as an acceptor

CMW Pol-1: baculovirus containing an unrelated gene, human cytomegalovirus DNA polymerase gene [reference compound]
Specific activity ([2]; Sf9 cell lysates, 48 hours post infection): 0.13 Units/mg protein
Relative rate ([2]; relative to uninfected cells): 0.8

C[C@@H](O)[C@H](NC(=O)[C@@H](N)CCCNC(=N)N)C(=O)N1CCC[C@H]1C(=O)N1CCC[C@H]1C(=O)N1CCC[C@H]1C(=O)O [RTPPP, Arg-Thr-Pro-Pro-Pro] (H-RTPPP-OH)
Km ([3]; 20 minutes, mean, S.E. (n = 3)): 3300 ± 600 µM
Vmax /Km ([3]; from Km and Vmax): 183 M⁻¹ s⁻¹

CC(=O)N[C@H]1[C@@H](OP(=O)(O)OP(=O)(O)OC[C@H]2O[C@@H](n3ccc(=O)[nH]c3=O)[C@H](O)[C@@H]2O)O[C@H](CO)[C@H](O)[C@@H]1O [UDP-GalNAc, UDP-N-acetylgalactosamine]
Km [4]: ~1.7 µM and 1.7 µM

N=C(N)NCCC[C@H](N)C(=O)N[C@@H](CO)C(=O)N1CCC[C@H]1C(=O)N1CCC[C@H]1C(=O)N1CCC[C@H]1C(=O)O [RSPPP, Arg-Ser-Pro-Pro-Pro] (H-RSPPP-OH)
slower glycosylation than PPAdSSdSAPG ([5]; RSPPP vs PPAdSSdSAPG): three times slower than PPAdSSdSAPG
Relative rate ([5]; […]): 1/751
Product formed ([5]; assay time 8 hours, 3.2 mM acceptor (RSPPP 3.7 mM)): 0.67 nmol/min/mg
